Converted amounts (≈) assume the structure as drawn.
How the values were obtained:
Gastrin Receptor = molecular target: T1, Gastrin Receptor (Cavia porcellus, UniProt H0VZC5); assay: Gastrin receptor binding in guinea pig gastric glands (125I-gastrin); conditions: ¹²⁵I-gastrin, 25°C for 30 minutes, read-out: IC₅₀
T1 construct: from tissue; host or cells: guinea pig gastric mucosal glands
T1 sequence (H0VZC5 1-426): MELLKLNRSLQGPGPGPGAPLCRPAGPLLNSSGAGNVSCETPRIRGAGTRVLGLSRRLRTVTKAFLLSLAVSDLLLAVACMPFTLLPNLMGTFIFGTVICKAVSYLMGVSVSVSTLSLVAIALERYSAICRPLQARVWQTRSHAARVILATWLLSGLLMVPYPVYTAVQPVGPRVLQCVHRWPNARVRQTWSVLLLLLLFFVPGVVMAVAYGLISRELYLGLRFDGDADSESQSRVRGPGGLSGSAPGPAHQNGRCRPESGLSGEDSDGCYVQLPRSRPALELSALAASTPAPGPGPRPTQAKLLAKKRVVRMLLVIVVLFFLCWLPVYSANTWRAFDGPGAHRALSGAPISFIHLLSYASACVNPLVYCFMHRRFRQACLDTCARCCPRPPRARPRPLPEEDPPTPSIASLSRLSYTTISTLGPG
Method: Guinea pig gastric mucosal glands were prepared by the procedure of Praissman et al., J. Receptor Res. 3:647 (1983). Stomachs from male Hartley guinea pigs (250-400 g body weight) were washed thoroughly and minced with fine scissors in HEPES buffer consisting of the following: 130 mM NaCl, 12 mM NaHCO₃, 3 mM NaH₂PO₄, 3 mM […], 3 mM K₂HPO₄, 2 mM MgSO₄, 1 mM CaCl₂, 5 mM glucose and 4 mM L-glutamine, 25 mM HEPES at pH 7.4. The minced tissues were washed and incubated in a 37°C shaker bath for 40 minutes, with HEPES buffer containing 0.1% collagenase and 0.1% bovine serum albumin (BSA), and bubbled with 95% O₂ and 5% CO₂. The tissues were passed twice through a 5 ml glass syringe to liberate the gastric glands, and then filtered through 200 mesh nylon. The filtered glands were centrifuged at 270 ^x g for 5 minutes and washed twice by resuspension and centrifugation.
The washed guinea pig gastric glands were resuspended in 25 ml of HEPES buffer containing 0.25 mg/ml of bacitracin. For binding studies, 14.2 µl of 50% MeOH/H₂O (for total binding) or gastrin (1 µM final concentration, for nonspecific binding) or broth or test compound from Examples 2, 3 or 4 and 20 µl of ¹²⁵I-gastrin (New England Nuclear [NEN], 20,000 cpm 20 µl) were added to 220 µl of gastric glands in triplicate tubes which were aerated with 95% O₂ and 5% CO₂ and capped. The reaction mixtures, after incubation at 25°C for 30 minutes in a shaking water bath, were filtered under reduced pressure on glass GF/B filters (Whatman) and immediately washed with 3 ^x 4 ml of HEPES buffer containing 0.1% BSA fraction V. The radioactivity on the filters was measured using a Beckman 5500 gamma counter for ¹²⁵I-gastrin.

Micrococcus luteus = assay: Antibiotic activity, filter paper disc agar diffusion MIC; type: cell-based; conditions: filter paper discs on agar, 15 hours at 28°C
Method: The compounds of Formulae I, II, and IV and virginiamycin M₁ from Example 2 were assayed for antibiotic activity following a method described by Matsen and Barry, Manual of Clinical Microbiology, Lennette, Spaulding, and Truant, Eds., American Society for Microbiology, Washington, D.C., p. 418 (1974). The minimal inhibitory concentrations (MIC) were determined by applying serial dilutions of the compounds of Formulae I, III, and IV and virginiamycin M₁ to standard filter paper discs. The concent↑ation of the test compounds ↑anged f↑om […] to 3.0 µg per disc in 20 µl of diluent. The test organism, Micrococcus luteus, was innoculated on the surface of an agar based nutrient medium in petri plates and the discs placed on the surface of the medium. The nutrient media consisted of nutrient broth supplemented with 0.2% yeast extract and 1.5% agar. The innoculated plates were incubated for 15 hours at 28°C and the zones of inhibition determined. The MIC of each compound was determined by the method described in Matsen and Barry, supra.

IC50 (Gastrin Receptor) [nM] | MIC (Micrococcus luteus) [µM] | Compound
710 | 1.5 (≈ 0.788 µg/mL) | CC1=C\[C@@H](O)CC(=O)Cc2nc(co2)C(=O)N2CCC=C2C(=O)O[C@H](C(C)C)[C@H](C)/C=C/C(=O)NC\C=C\1 [Virginiamycin M₁, reference compound]
90 | 250 (≈ 127 µg/mL) | CC1=C\C=C\C(=O)Cc2nc(co2)C(=O)N2CCC=C2C(=O)O[C@H](C(C)C)[C@H](C)/C=C/C(=O)NC\C=C\1 [Compound III]
13 |  | CC1=C\C=C\[C@H](O)Cc2nc(co2)C(=O)N2CCC=C2C(=O)O[C@H](C(C)C)[C@H](C)/C=C/C(=O)NC\C=C\1 [Compound II]
360 | 15 (≈ 7.64 µg/mL) | CC1=C\CCC(=O)Cc2nc(co2)C(=O)N2CCC=C2C(=O)O[C@H](C(C)C)[C@H](C)/C=C/C(=O)NC\C=C\1 [IV]
12 | 90 (≈ 45.9 µg/mL) | CC1=C\C=C\[C@@H](O)Cc2nc(co2)C(=O)N2CCC=C2C(=O)O[C@H](C(C)C)[C@H](C)/C=C/C(=O)NC\C=C\1 [Compound I]

— patent publication EP0269322B1, “Virginiamycin analogs” (Merck & Co., Inc., priority 1986, dated 1988)
